Data from ChEMBL document CHEMBL3774320, “SAR exploration at the C-3 position of tetrahydro-β-carboline sstr3 antagonists” (Bioorg Med Chem Lett, 2016).
Blank lines part the entries; values can stand above or below the molecule they belong to.

Assays:
Mus musculus [1] = test: Dose normalized AUC in mouse at 2 mg/kg, po; type: ADME, organism-based; conditions: in vivo
[2] = molecular target: T1, Somatostatin receptor type 3 (Homo sapiens, UniProt P32745)
Description: Antagonist activity at human somatostatin receptor type 3 assessed as inhibition of cAMP levels

Mus musculus [3] = test: Decrease in glucose excursion in mouse at 10 mg/kg, po by Glucose tolerance test; type: functional; set-up: scale not given: the % may be the effect or the level left
Mus musculus [4] = test: Decrease in glucose excursion in mouse at 0.1 mg/kg, po by Glucose tolerance test; type: functional; set-up: scale not given: the % may be the effect or the level left
[5] = Half life in mouse at 1 mg/kg, iv; type: ADME, organism-based; conditions: in vivo
[6] = Oral bioavailability in mouse at 2 mg/kg; type: ADME, organism-based; conditions: in vivo
[7] = Clearance in mouse plasma at 1 mg/kg, iv; type: ADME, organism-based
[8] = Volume of distribution at steady state in mouse at 1 mg/kg, iv and at 2 mg/kg, po; type: ADME, organism-based; conditions: in vivo, read-out: Vdss
[9] = molecular target: Somatostatin receptor type 2 (Homo sapiens, UniProt P30874); test: Binding affinity to somatostatin receptor type 2 (unknown origin)
Chain of Somatostatin receptor type 2 (P30874 whole entry): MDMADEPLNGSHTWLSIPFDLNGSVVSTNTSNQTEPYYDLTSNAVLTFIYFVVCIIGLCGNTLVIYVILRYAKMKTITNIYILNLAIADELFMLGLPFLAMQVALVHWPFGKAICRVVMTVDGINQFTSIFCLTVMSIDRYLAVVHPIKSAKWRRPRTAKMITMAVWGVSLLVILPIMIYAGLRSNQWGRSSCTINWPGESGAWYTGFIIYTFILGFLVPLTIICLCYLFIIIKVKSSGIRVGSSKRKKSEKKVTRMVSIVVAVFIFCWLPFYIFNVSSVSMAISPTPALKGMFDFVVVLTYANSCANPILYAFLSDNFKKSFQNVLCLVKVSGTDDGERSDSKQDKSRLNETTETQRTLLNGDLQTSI

Mus musculus [10] = test: Decrease in glucose excursion in mouse at 3 mg/kg, po by Glucose tolerance test; type: functional; set-up: scale not given: the % may be the effect or the level left
[11] = molecular target: Somatostatin receptor type 4 (Homo sapiens, UniProt P31391); test: Binding affinity to somatostatin receptor type 4 (unknown origin)
Chain of Somatostatin receptor type 4 (P31391 whole entry): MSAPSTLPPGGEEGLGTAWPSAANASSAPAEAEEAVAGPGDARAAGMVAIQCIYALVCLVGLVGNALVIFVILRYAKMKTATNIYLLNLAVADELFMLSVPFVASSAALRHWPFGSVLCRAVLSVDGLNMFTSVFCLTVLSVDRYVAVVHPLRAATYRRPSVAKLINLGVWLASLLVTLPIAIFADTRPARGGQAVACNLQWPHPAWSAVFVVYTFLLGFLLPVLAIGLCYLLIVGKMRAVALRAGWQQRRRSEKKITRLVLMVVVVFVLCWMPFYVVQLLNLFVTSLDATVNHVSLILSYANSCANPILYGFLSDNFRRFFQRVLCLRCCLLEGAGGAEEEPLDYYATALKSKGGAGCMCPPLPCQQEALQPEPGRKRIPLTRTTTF

[12] = molecular target: Somatostatin receptor type 5 (Homo sapiens, UniProt P35346); test: Binding affinity to somatostatin receptor type 5 (unknown origin)
Chain of Somatostatin receptor type 5 (P35346 whole entry): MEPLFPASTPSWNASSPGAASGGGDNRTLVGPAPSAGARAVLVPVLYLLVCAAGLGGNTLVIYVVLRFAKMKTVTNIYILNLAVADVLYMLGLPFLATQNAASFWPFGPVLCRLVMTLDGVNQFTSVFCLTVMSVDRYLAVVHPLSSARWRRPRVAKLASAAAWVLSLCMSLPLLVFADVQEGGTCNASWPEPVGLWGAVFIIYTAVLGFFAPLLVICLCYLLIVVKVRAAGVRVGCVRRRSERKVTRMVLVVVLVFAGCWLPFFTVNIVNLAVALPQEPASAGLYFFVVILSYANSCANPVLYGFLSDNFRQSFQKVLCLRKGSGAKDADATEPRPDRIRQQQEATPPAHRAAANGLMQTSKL

Mus musculus [13] = test: Decrease in glucose excursion in mouse at 1 mg/kg, po by Glucose tolerance test; type: functional; set-up: scale not given: the % may be the effect or the level left
[14] = molecular target: Somatostatin receptor type 1 (Homo sapiens, UniProt P30872); test: Binding affinity to somatostatin receptor type 1 (unknown origin)
Chain of Somatostatin receptor type 1 (P30872 whole entry): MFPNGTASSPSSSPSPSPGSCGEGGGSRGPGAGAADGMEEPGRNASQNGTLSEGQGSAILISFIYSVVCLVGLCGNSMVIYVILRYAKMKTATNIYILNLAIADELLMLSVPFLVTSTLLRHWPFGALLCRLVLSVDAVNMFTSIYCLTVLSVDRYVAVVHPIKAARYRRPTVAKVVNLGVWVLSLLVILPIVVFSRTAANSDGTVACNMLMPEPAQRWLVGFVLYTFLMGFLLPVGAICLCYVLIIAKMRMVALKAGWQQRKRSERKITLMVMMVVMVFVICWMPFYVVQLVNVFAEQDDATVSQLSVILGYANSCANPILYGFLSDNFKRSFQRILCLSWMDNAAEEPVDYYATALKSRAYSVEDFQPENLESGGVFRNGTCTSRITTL

Mus musculus [15] = test: Decrease in glucose excursion in mouse at 0.03 mg/kg, po by Glucose tolerance test; type: functional; set-up: scale not given: the % may be the effect or the level left
Mus musculus [16] = test: Decrease in glucose excursion in mouse at 0.3 mg/kg, po by Glucose tolerance test; type: functional; set-up: scale not given: the % may be the effect or the level left
[17] = molecular target: Voltage-gated inwardly rectifying potassium channel KCNH2 (Homo sapiens, UniProt Q12809); test: Binding affinity to human ERG
Chain of Voltage-gated inwardly rectifying potassium channel KCNH2 (Q12809 whole entry): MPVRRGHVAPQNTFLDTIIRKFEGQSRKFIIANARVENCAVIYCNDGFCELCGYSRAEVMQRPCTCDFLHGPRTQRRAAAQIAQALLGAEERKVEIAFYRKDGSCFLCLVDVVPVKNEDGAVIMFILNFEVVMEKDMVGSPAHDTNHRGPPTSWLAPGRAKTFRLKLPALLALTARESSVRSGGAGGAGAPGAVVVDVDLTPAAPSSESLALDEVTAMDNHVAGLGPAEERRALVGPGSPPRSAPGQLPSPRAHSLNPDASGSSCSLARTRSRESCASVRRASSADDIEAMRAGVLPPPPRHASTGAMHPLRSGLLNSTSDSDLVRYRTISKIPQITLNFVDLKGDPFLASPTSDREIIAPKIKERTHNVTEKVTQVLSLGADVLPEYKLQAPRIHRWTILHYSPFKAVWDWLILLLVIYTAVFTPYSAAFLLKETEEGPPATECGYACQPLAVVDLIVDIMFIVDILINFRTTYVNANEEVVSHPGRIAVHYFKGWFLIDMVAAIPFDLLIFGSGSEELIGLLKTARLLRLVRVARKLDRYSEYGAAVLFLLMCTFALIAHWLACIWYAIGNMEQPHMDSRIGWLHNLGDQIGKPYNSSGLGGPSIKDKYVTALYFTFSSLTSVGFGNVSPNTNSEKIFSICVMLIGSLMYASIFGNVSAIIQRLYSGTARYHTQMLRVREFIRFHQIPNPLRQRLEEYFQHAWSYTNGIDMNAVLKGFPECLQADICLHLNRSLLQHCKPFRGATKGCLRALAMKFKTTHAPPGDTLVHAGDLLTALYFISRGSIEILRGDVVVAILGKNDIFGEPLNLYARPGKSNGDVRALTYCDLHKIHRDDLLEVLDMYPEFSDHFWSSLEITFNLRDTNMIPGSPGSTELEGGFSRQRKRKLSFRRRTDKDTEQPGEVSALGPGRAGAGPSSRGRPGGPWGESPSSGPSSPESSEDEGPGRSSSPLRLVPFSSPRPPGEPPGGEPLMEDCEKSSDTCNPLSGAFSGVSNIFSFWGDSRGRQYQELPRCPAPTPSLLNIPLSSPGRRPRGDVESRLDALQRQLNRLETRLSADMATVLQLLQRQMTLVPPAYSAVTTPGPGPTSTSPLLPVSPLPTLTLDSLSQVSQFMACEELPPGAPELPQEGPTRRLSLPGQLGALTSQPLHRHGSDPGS

[18] = molecular target: T1, Somatostatin receptor type 3; remark: listed apart in the source
Description: Binding affinity to human somatostatin receptor type 3

in vivo [19] = conditions: rat, po, 2 mg/kg
in vivo [20] = conditions: mouse, po, 10 mg/kg
[21] = Clearance in mouse plasma at 4 mg/kg, iv
Mus musculus [22] = species: Mus musculus; conditions: in vivo, po, 10 mg/kg
[23] = Half life in mouse at 4 mg/kg, iv; conditions: in vivo
Rattus norvegicus [24] = species: Rattus norvegicus; conditions: in vivo, po, 2 mg/kg
[25] = Volume of distribution at steady state in mouse at 4 mg/kg, iv and at 10 mg/kg, po; conditions: in vivo
Rattus norvegicus [26] = test: Half life in rat at 1 mg/kg, iv; conditions: in vivo
Rattus norvegicus [27] = test: Volume of distribution at steady state in rat at 1 mg/kg, iv and at 2 mg/kg, po; conditions: in vivo

T1 sequence (P32745 whole entry): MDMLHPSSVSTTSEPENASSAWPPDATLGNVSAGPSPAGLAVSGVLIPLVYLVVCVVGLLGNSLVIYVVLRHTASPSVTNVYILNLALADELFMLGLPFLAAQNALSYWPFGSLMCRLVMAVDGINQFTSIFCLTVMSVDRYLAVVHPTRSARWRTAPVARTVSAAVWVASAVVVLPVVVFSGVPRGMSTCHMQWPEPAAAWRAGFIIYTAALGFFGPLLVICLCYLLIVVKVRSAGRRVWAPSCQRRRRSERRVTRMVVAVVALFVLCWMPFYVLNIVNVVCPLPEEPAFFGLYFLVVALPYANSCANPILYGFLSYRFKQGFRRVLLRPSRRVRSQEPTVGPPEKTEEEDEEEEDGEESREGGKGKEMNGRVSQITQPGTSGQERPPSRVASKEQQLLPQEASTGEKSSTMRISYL

half-life [5]: 3.6 h | AUC/dose (Mus musculus [1]): 5.58 µM·h/mg/kg | bioavailability [6]: 82% | clearance [7]: 5.9 mL/min/kg | Vd [8]: 1.8 L/kg | EC50 [2]: 5.7 nM
Compound: Fc1ccc(-c2c[nH]c([C@H]3Cc4c([nH]c5ccccc45)[C@@H](C4CCOCC4)N3)n2)cc1
Activity (Mus musculus [3]): 79%

IC50 [18]: 25 nM | EC50 [2]: > 1000 nM
Compound: c1ccc2c3c([nH]c2c1)C(C1CCOCC1)NC(c1nc(C24CC5CC(CC(C5)C2)C4)c[nH]1)C3 (stereo unspecified)
IC50 [17]: 506 nM

bioavailability (in vivo [19]): 49% | bioavailability (in vivo [20]): 58% | clearance [21]: 77 mL/min/kg | AUC/dose (Mus musculus [22]): 0.31 µM·h/mg/kg | half-life [23]: 1.3 h | IC50 [18]: 23 nM | AUC/dose (Rattus norvegicus [24]): 0.28 µM·h/mg/kg | Vd [25]: 4.6 L/kg | t1/2 (Rattus norvegicus [26]): 0.96 h | EC50 [2]: 17 nM | Vdss (Rattus norvegicus [27]): 13.2 L/kg
Compound: CC1(c2nc(-c3ccccc3)c[nH]2)Cc2c([nH]c3ccccc23)C(C2CCOCC2)N1 (stereo in doubt; 6a)
IC50 [17]: 2180 nM

The remaining lines, values behind:

Compound: c1ccc(-c2c[nH]c([C@H]3Cc4c([nH]c5ccccc45)[C@@H](C4CCOCC4)N3)n2)cc1
AUC/dose (Mus musculus [1]): 1.25 µM·h/mg/kg | EC50 [2]: 22 nM | Activity (Mus musculus [3]): 75%

Compound: Cc1nc([C@]2(c3cnn(C)c3)N[C@@H](c3nc(-c4ccc(F)cc4)c[nH]3)Cc3c2[nH]c2ccccc32)no1
Activity (Mus musculus [4]): 94%

Compound: Cc1nc([C@]2(c3cnn(C)c3)N[C@@H](c3nc(-c4ccc(F)cn4)c[nH]3)Cc3c2[nH]c2ccccc32)no1
IC50 [9]: > 10000 nM | Activity (Mus musculus [10]): 93% | IC50 [11]: 3200 nM | IC50 [12]: 10000 nM | Activity (Mus musculus [13]): 87% | IC50 [14]: 2300 nM | Activity (Mus musculus [15]): 40% | Activity (Mus musculus [16]): 57% | Activity (Mus musculus [4]): 46%

Compound: CC(C)(C)c1c[nH]c(C2Cc3c([nH]c4ccccc34)C(C3CCOCC3)N2)n1 (stereo unspecified)
IC50 [17]: 2940 nM | IC50 [18]: 150 nM | EC50 [2]: 1010 nM

Compound: CC1(c2nc(-c3ccccc3)c[nH]2)Cc2c([nH]c3ccccc23)C(C2CCOCC2)N1 (stereo in doubt; 6d)
IC50 [17]: 530 nM | IC50 [18]: 102 nM | EC50 [2]: > 1000 nM
